Measurements from PubChem BioAssay (NCI).
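How tested: cells in 96-well plates exposed to compound for 48 hours at five concentrations. GI50: concentration for 50% inhibition of growth. At the TGI there is no net growth.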

Experiments:
Test in all cases: NCI anticancer screen, dose series, 48 h
[1] = test system: CAKI-1 renal
[2] = test system: K-562 leukemia
[3] = test system: KM12 colon
[4] = test system: NCI-H23 lung
[5] = test system: PC-3 prostate
[6] = test system: SN12C renal
[7] = test system: SNB-19 CNS
[8] = test system: SW-620 colon
[9] = test system: U251 CNS
[10] = test system: SK-MEL-2 melanoma

| SMILES | TGI [1] | TGI [2] | TGI [3] | TGI [4] | TGI [5] | TGI [6] | TGI [7] | TGI [8] | TGI [9] | TGI [10] | GI50 [5] | GI50 [9] |
| --- | --- | --- | --- | --- | --- | --- | --- | --- | --- | --- | --- | --- |
| CC1=C(C)SC(=C2Sc3nc(O)[nH]c(=O)c3S2)S1 | > 100 µM | > 100 µM | > 100 µM | > 100 µM | > 100 µM | > 100 µM | > 100 µM | > 100 µM | > 100 µM | – | – | – |
| COc1cccc(/C=C2\S/C(=N/Nc3nc(-c4ccc([N+](=O)[O-])cc4)cs3)NC2=O)c1O | 71.1 µM | – | 26.9 µM | 33.5 µM | 40.2 µM | 50.5 µM | 52.9 µM | 46.1 µM | 7.66 µM | – | – | – |
| CNC1(C(=O)O)CC1 | – | > 100 µM | > 100 µM | > 100 µM | > 100 µM | > 100 µM | > 100 µM | > 100 µM | > 100 µM | – | – | – |
| CC(=O)CC1=C(OC(C)C)C2(OCCO2)C1O (stereo unspecified) | > 100 µM | – | > 100 µM | > 100 µM | > 100 µM | > 100 µM | > 100 µM | > 100 µM | > 100 µM | > 100 µM | – | – |
| Cc1cnc2[nH]c(-c3ccc4ccccc4c3)cc(=O)c2c1 | – | – | > 100 µM | – | > 100 µM | > 100 µM | > 100 µM | > 100 µM | > 100 µM | > 100 µM | 0.404 µM | 0.464 µM |
| Cc1ccc(N(C)S(=O)(=O)c2ccccc2[N+](=O)[O-])cc1 | > 100 µM | – | > 100 µM | > 100 µM | > 100 µM | > 100 µM | > 100 µM | > 100 µM | > 100 µM | > 100 µM | – | – |
| Cc1ccc(N/C(SCc2ccccc2)=C(\C(Cl)=C(Cl)Cl)[N+](=O)[O-])c(C)c1 | 50.8 µM | – | > 100 µM | 38.5 µM | > 100 µM | 43.8 µM | > 100 µM | 33.3 µM | 29.3 µM | > 100 µM | – | – |
| CN1CC2CN(Cc3ccccc3)CCN2c2cccnc21 (stereo unspecified) | > 100 µM | > 100 µM | 89.1 µM | > 100 µM | > 100 µM | – | > 100 µM | > 100 µM | > 100 µM | > 100 µM | – | – |
| CCCCCCCCC/C=C1\CCC(CN(C)C)C1=O (stereo unspecified) | 4.99 µM | 7.53 µM | 3.84 µM | 5.61 µM | – | 4.34 µM | 18.1 µM | 3.08 µM | 3.02 µM | 6.42 µM | – | – |
| CCOC(=O)c1nc2ccc(C(F)(F)F)cc2nc1Oc1ccc(C(=O)OC)cc1 | > 100 µM | > 100 µM | > 100 µM | > 100 µM | > 100 µM | – | > 100 µM | > 100 µM | > 100 µM | > 100 µM | – | – |
| Cc1[nH]c(=O)nc(NNCc2ccc(Cl)cc2)c1C(=O)Nc1ccc(Cl)cc1 | > 100 µM | – | > 100 µM | > 100 µM | > 100 µM | > 100 µM | > 100 µM | > 100 µM | > 100 µM | > 100 µM | – | – |
| CCCCCCCCCCCCCCCCCCOCC(O)COP(=O)(O)OCC1OC(n2ccc(N)nc2=O)C(O)C1O (stereo unspecified) | 75 µM | > 100 µM | 41 µM | > 100 µM | 20.7 µM | > 100 µM | 24.6 µM | > 100 µM | 30.2 µM | – | – | – |
| Cc1ccc2c(/C=C/c3ccc(N(C)C)cc3)ccc(C(C)C)cc1-2 | > 100 µM | > 100 µM | > 100 µM | > 100 µM | > 100 µM | > 100 µM | – | > 100 µM | > 100 µM | > 100 µM | – | – |
| Cc1cnc2sn(-c3ccc(Br)cc3)c(=O)c2c1 | 30.7 µM | – | > 100 µM | > 100 µM | > 100 µM | > 100 µM | > 100 µM | 89.6 µM | > 100 µM | > 100 µM | – | – |
| O=c1cc(-c2cccnc2)[nH]c2cc3c(cc12)OCO3 | – | > 100 µM | > 100 µM | > 53.5 µM | > 100 µM | > 100 µM | 79.6 µM | > 100 µM | 30.8 µM | > 100 µM | – | – |
| CC(=O)Nc1cccc(N=NN(C)C)c1 | > 100 µM | > 100 µM | > 100 µM | > 100 µM | – | > 100 µM | > 100 µM | > 100 µM | > 100 µM | > 100 µM | – | – |
| OC1CSc2nc3ccccc3n2C1 (stereo unspecified) | > 100 µM | > 100 µM | > 100 µM | > 100 µM | > 100 µM | > 100 µM | > 100 µM | > 100 µM | > 100 µM | – | – | – |
